The results in this text go back to ChEMBL document CHEMBL1201862, “PubChem BioAssay data set” (2004).

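48-hour exposure; five concentrations; linearly interpolated endpoints. Here, GI50 denotes the concentration required for 50% inhibition of growth.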 Calls of active or inactive are those of the source. Cut-off read from the data, not from the text of the source: active = GI50 up to about 1.1 µM and inactive = higher.

Some test systems named below: BT-549; CAKI-1; COLO 205; DU-145; HCT-116; HL-60; HOP-62; HOP-92; HT-29; Hs-578T; K562; M14; MCF7; NCI-H226; NCI-H460; RPMI-8226; SF-268; SK-MEL-28; SK-MEL-5; SW-620.
Common to all, as to assay: NCI anticancer screen, dose series, 48 h

Regarding `COc1cc(OC(=O)c2ccccc2)cc2c1C(=O)C=CC2=O`, the GI50 in the assay with BT-549 is 15.8 µM (inactive); in the assay with CAKI-1, 20.6 µM (inactive); with COLO 205 it was 16.2 µM (inactive); in the assay on DU-145, 17.7 µM (inactive); in the assay on HCT-116 it was 6.35 µM (inactive); in the assay with HL-60, 0.556 µM (active). Moreover, the GI50 with HOP-62 was 42.9 µM (inactive); with HOP-92, 2.16 µM (inactive); in the assay on HT-29, 14.1 µM (inactive); in the assay with Hs-578T, 25.1 µM (inactive); with K562, 1.88 µM (inactive); in the assay with M14, 14.4 µM (inactive). Also, the GI50 is 11 µM (inactive) in the assay with MCF7; 28.4 µM (inactive) in the assay on NCI-H226; 34.2 µM (inactive) in the assay on NCI-H460; 2.93 µM (inactive) with RPMI-8226; 16.8 µM (inactive) with SF-268; 18.2 µM (inactive) in the assay with SK-MEL-28. For the same compound, the GI50 was 16 µM (inactive) in the assay on SK-MEL-5 and 8.79 µM (inactive) in the assay on SW-620.
Regarding `CCOC(=O)C(Cc1c2ccccc2cc2ccccc12)(NC(C)=O)C(=O)OCC`, the GI50 is 99.8 µM (inactive) with BT-549; 20 µM (inactive) with CAKI-1; > 53.2 µM (inactive) in the assay on COLO 205; > 92.5 µM (inactive) with DU-145; 48.9 µM (inactive) in the assay on HCT-116; 34.4 µM (inactive) in the assay with HL-60. Besides, the GI50 with HOP-62 is > 56 µM (inactive); with HOP-92, 14.2 µM (inactive); with HT-29, > 86.9 µM (inactive); in the assay on Hs-578T it was 46.8 µM (inactive); in the assay with K562, > 69.8 µM (inactive); in the assay on M14, > 75.9 µM (inactive). Further, the GI50 with MCF7 was 2.99 µM (inactive); with NCI-H226 it was 62.1 µM (inactive); with NCI-H460, > 100 µM (inactive); with RPMI-8226, > 100 µM (inactive); in the assay on SF-268 it was 36.9 µM (inactive); in the assay on SK-MEL-28, > 100 µM (inactive). Further, the GI50 in the assay with SK-MEL-5 was > 50.6 µM (inactive); in the assay with SW-620, > 79.8 µM (inactive).
In the case of `CCCc1cn2c(/C=N/N=C(N)N)c(-c3c(OC)ccc(OC)c3[N+](=O)[O-])nc2s1`, the GI50 was 10.9 µM (inactive) with BT-549; 5.57 µM (inactive) with CAKI-1; 2.16 µM (inactive) in the assay with COLO 205; 16 µM (inactive) in the assay with DU-145; 6.18 µM (inactive) in the assay with HCT-116; 7.46 µM (inactive) in the assay with HL-60. For the same compound, the GI50 in the assay on HOP-62 is 12.6 µM (inactive); in the assay with HOP-92, 12.5 µM (inactive); in the assay with HT-29, 4.06 µM (inactive); in the assay with Hs-578T, 13.1 µM (inactive); in the assay with K562, 3.44 µM (inactive); with M14, 7.08 µM (inactive). Besides, the GI50 in the assay on MCF7 was 2.81 µM (inactive); in the assay on NCI-H226, 11.4 µM (inactive); with NCI-H460, 12.3 µM (inactive); in the assay with RPMI-8226, 2.54 µM (inactive); with SF-268 it was 11.4 µM (inactive); in the assay with SK-MEL-28, 4.84 µM (inactive). For the same compound, the GI50 is 13.3 µM (inactive) in the assay on SK-MEL-5 and 7.78 µM (inactive) in the assay with SW-620.
For `CCCC(=O)OCC1OC(n2cc(F)c(=O)[nH]c2=O)C(F)C1OC(=O)CCC` (stereo not given), the GI50 was 13.9 µM (inactive) in the assay with BT-549; 23.1 µM (inactive) with CAKI-1; 36.4 µM (inactive) in the assay on COLO 205; 15.3 µM (inactive) in the assay with DU-145; 21.5 µM (inactive) in the assay with HCT-116; > 100 µM (inactive) with HL-60. For the same compound, the GI50 with HOP-62 is 4.11 µM (inactive); in the assay with HOP-92, 17.4 µM (inactive); in the assay on HT-29, 45.4 µM (inactive); with Hs-578T, 26.5 µM (inactive); in the assay on K562, 56.1 µM (inactive); with M14, 36.3 µM (inactive). Further, the GI50 in the assay on MCF7 was 0.6 µM (active); in the assay on NCI-H226 it was > 100 µM (inactive); in the assay with NCI-H460 it was 3.78 µM (inactive); in the assay with RPMI-8226, 9.31 µM (inactive); in the assay with SF-268, 8.53 µM (inactive); in the assay with SK-MEL-28, > 100 µM (inactive). The GI50 in the assay on SK-MEL-5 was 36.8 µM (inactive); in the assay on SW-620 it was 53.6 µM (inactive).
Turning to `NC(Cc1n[nH]c2ccccc12)C(=O)O` (stereo not given), the GI50 with BT-549, in the assay with CAKI-1, in the assay on COLO 205, in the assay on DU-145, in the assay with HCT-116 and with HL-60 was > 100 µM (inactive) in each case. Besides, the GI50 with HOP-62, with HOP-92, in the assay with HT-29, in the assay with Hs-578T, in the assay with K562 and with M14 was > 100 µM (inactive) throughout. Further, the GI50 with MCF7, in the assay with NCI-H226, in the assay on NCI-H460, in the assay with RPMI-8226, in the assay with SF-268 and with SK-MEL-28 was > 100 µM (inactive) throughout. For the same compound, the GI50 with SK-MEL-5 and with SW-620 was > 100 µM (inactive) each time.
For the compound `C#CC1(O)C(COP(=O)(O)OCC2OC(n3ccc(NCCCCCCCCCCCCCCCCCC)nc3=O)C(O)C2O)OC(n2ccc(N)nc2=O)C1O` (stereo not given), the GI50 in the assay on BT-549 is 2.73 µM (inactive); in the assay with CAKI-1 it was 0.161 µM (active); with COLO 205 it was 0.71 µM (active); in the assay with DU-145 it was 0.279 µM (active); in the assay on HCT-116, 0.245 µM (active); with HL-60 it was 0.298 µM (active). For the same compound, the GI50 in the assay on HOP-62 is 4.04 µM (inactive); in the assay on HOP-92 it was 21.2 µM (inactive); in the assay with HT-29 it was 0.518 µM (active); in the assay on Hs-578T, 2.12 µM (inactive); with K562, 0.278 µM (active); with M14, 0.254 µM (active). Also, the GI50 in the assay with MCF7 was 0.059 µM (active); in the assay on NCI-H226 it was 0.757 µM (active); in the assay with NCI-H460, 0.0519 µM (active); with RPMI-8226, 0.142 µM (active); with SF-268, 1.34 µM (inactive); in the assay on SK-MEL-28, 1.78 µM (inactive). In addition, the GI50 in the assay with SK-MEL-5 was 1.23 µM (inactive); in the assay with SW-620, 0.228 µM (active).
Take `CCOC(=O)C(C)c1nc2cc(F)c(F)cc2[nH]c1=O` (stereo not given): the GI50 with BT-549, in the assay on CAKI-1, in the assay on COLO 205, in the assay with DU-145, in the assay with HCT-116 and with HL-60 was > 100 µM (inactive) throughout. Besides, the GI50 in the assay with HOP-62, in the assay with HOP-92, in the assay on HT-29, with Hs-578T, in the assay on K562 and with M14 was > 100 µM (inactive) in each case. Moreover, the GI50 in the assay on MCF7, in the assay with NCI-H226, in the assay on NCI-H460, in the assay with RPMI-8226, in the assay with SF-268 and in the assay on SK-MEL-28 was > 100 µM (inactive) each time. The GI50 in the assay on SK-MEL-5 and with SW-620 was > 100 µM (inactive) each time.
